Reference: patent US20210363254A1, “PHARMACEUTICAL COMBINATIONS” (Novartis AG, priority 2018, published 2021)

Legend:
[1] = tested on: human SJSA-1 (osteosarcoma) xenograft; assay: TGI PK/PD modelling, human SJSA-1 (osteosarcoma) xenograft rat; format: in vivo; conditions: human SJSA-1 xenograft rat; for Average concentration for tumor stasis: TGI PK/PD modelling
Description: To further support the preferred dose for HDM201, compartmental PK modeling was used to estimate the individual average concentration per cycle for the 9 patients treated at 120 mg on regimen 1B (FIG. 15). For the majority of patients (7 out of 9), the estimated average drug concentrations per cycle were near or above the most conservative average tumor stasis concentration of ˜41 ng/mL per cycle determined from PKPD modeling of preclinical data (human SJSA-1 xenograft rat model).
Compartmental population PK modeling of NVP-HDM201 was used to estimate the individual average plasma concentration for Cycle 1 and to allow comparison with preclinical average concentration for tumor stasis derived by PK/PD tumor growth modeling. […] The dashed line at concentration of ≈19 ng/mL represents average tumor stasis determined from PK/PD modeling of preclinical data from a liposarcoma (HSAX2655) patient-derived xenograft rat model.

Colon 26 tumors = assay: Anti-tumor activity in Colon 26 syngeneic tumor model (8020 Colon 26-XEF); format: in vivo, mouse
Description: (§1) Time to endpoint. Balb/c mice were implanted with 2×10^5 Colon 26 cells subcutaneously. Mice were treated with HDM201 at 40 mg/kg×3 for every 3h po on Days 12, 19 and 26 post cell implant, and the aPD-1 antibody at 5 mg/kg ip on days 12, 15, 19, and 22. End point was defined as tumor volume equal or greater than 1000 mm^3. Log Rank, p<0.05.
as §1, with “FIG. 25: Individual Tumor Growth Curves (8020 Colon 26-XEF) Individual tumor growth curves.” for “Time to endpoint.”, “equal to” for “equal”, “The horizontal dashed line indicates the tumor endpoint tumor size (1000 mm^3).” for “Log Rank, p<0.05.”
Colon 26 cells were harvested at 80-95% confluence, washed, and re-suspended in cold PBS at a concentration of 2×10^6 cells/ml. Finally, 0.2×10^6 cells in a total volume of 100 μL were implanted subcutaneously (sc) into the upper right flank of naive Balb/c mice.
For Study 8020 Colon 26-XEF, animals were randomized and enrolled onto the study when tumor volumes reached a range of 27-60 mm^3 on day 10 post cell implantation. All treatments were initiated three days later on day 13. For the PD studies, animals were randomized when the mean tumor volume reached 100˜120 mm^3.
The designs of studies 7628 Colon 26-XPD, 8063 Colon 26-XPD and 8020 Colon 26-XEF including dose and schedule for treatment groups are summarized in Tables Ex3.2 to Ex3.4. Animals were weighed on dosing day(s) and the dosing volume was adjusted to body weight to 10 ml/kg. Tumor dimensions and body weights were recorded at the time of randomization and twice weekly thereafter for the study duration. The following data were collected after each day of data collection: incidence of mortality, individual and group average body weights, and individual and group average tumor volume.
Percent treatment/control (% T/C) and percent regression (% Reg) values were calculated using the following formulas, respectively:
% Reg=100×ΔT/Tinitial if ΔT<0 […]
A Kaplan-Meier survival analysis was performed to compare differences in time to endpoint (TTE). Mice were scored as achieving tumor endpoint once tumor volume exceeded 1000 mm^3 and scored as dead (“1”). […]
The anti-tumor activity of HDM201 with aPD1 antibody targeting the PD-1/PD-L1 axis was explored in the Colon 26 murine syngeneic model (8020 Colon 26-XEF). […] Tumor growth delay was assessed as median time to endpoint using the Kaplan-Meier analysis (GraphPad v7.0).

COc1ncc(-c2nc3c(n2C(C)C)[C@H](c2ccc(Cl)cc2)N(c2cc(Cl)cn(C)c2=O)C3=O)c(OC)n1 [HDM201, (S)-5-(5-Chloro-1-methyl-2-oxo-1,2-dihydro-pyridin-3-yl)-6-(4-chloro-phenyl)-2-(2,4-dimethoxy-pyrimidin-5-yl)-1-isopropyl-5,6-dihydro-1H-pyrrolo[3,4-d]imidazol-4-one]
Average concentration for tumor stasis [1]: ~41 ng/mL | Average concentration for tumor stasis ([1]; listed as NVP-HDM201): ≈ 41 ng/mL | average concentration for 95% tumor regression [1]: 120 ng/mL | average concentration for 95% tumor regression ([1]; listed as NVP-HDM201): 125 ng/mL | animals with partial response (Colon 26 tumors; 10 mice per group): 1/10 | complete tumor regression / complete responses (CR), animals (Colon 26 tumors; 10 mice per group, HDM201 40 mg/kg 3×q3h po weekly, aPD1 Ab 5 mg/kg ip): no CR | tumor growth (Colon 26 tumors; HDM201 40 mg/kg): inhibited tumor growth | median time to endpoint (TV≥1000 mm^3), Kaplan-Meier (Colon 26 tumors; HDM201 40 mg/kg 3×q3h po weekly, aPD1 Ab 5 mg/kg ip, vehicle 23 days): 31.5 days
